According to patent US9006487B2, “Amine-containing lipids and uses thereof” (Massachusetts Institute of Technology, priority 2005, dated 2015):

Tested on: cos-7 cells
Assay: DNA transfection: luciferase expression relative to Lipofectamine 2000
Type: cell-based
Conditions: for Luciferase expression as a percentage of that achieved using Lipofectamine 2000: 300 ng Luciferase DNA per well
Experimental: 14,000 cos-7 cells (ATCC, Manassas, Va.) were seeded into each well of a solid white or clear 96 well plate (Corning-Costar, Kennebunk, Me.) and allowed to attached overnight in growth medium, composed of: 500 ml phenol red minus DMEM, 50 ml heat inactivated FBS, 5 ml penicillin/streptomycin (Invitrogen, Carlsbad, Calif.).
A small liquot of lipid was tranferred to an Eppendorf tube. Based on the mass of the lipid in the tube, sterile 25 mM sodium acetate buffer was added to each tube to yield a concentration of 60 mg/ml. The resulting mixture was vortexed for approximately 20 minutes until the lipid was fully dissolved. DNA was prepared based on 300 ng DNA per well of a 96-well plate. 291 μg of Lc DNA was dissolved in 9210 μl of 25 mM sodium acetate buffer. Aliquots of 30 μl of DNA solution were added to each well expect for the last column which was reserved for the Lipo2000 standard. For the last column of the plate, 61 μg of DNA was added to 1940 μl Optimem. 150 μl of media/Optimem was added to each well of plates. 50 μl of lipid solution was aliquoted into wells of robot plate. The following amounts were aliquoted to obtain the correct ratios of DNA to lipid:
In quadruplicate, 30 μl of lipid was aliquoted onto DNA in four rows for each ratio. For the Lipo2000 control (2.5 w/w ratio to DNA), 152.5 μg of Lipo sample was aliquoted into 1847.5 μl of Optimem. 30 μl of this solution was aliquoted onto DNA in the Optimem in the last columns of each plate. The plates were incubated for 15-20 minutes, and then 36.5 μl of lipid+DNA complexes was transferred into 150 μl of media/Optimem, then add to cells. The media was aspirated off the cells, and 105 μl of the lipid/DNA/media/Optimem solution was added to the cells. The luciferase assay was performed after 48 hours.
Luminescence was analyzed using bright-glo assay kits (Promega). Briefly, 100 μl of bright-glo solution was added to each well of the microtiter plate containing media and cells. Luminescence was measured using a Mithras Luminometer (Berthold, Oak Ridge, Tenn.). In some cases, a neutral density filter (Chroma, Brattleboro, Vt.) was used to prevent saturation of the luminometer. A standard curve for Luciferase was generated by titration of Luciferase enzyme (Promega) into growth media in white microtiter plates. Luciferase in ng per well are calculated for each of the lipids at 2.5 w/w, 5 w/w, 10 w/w, 15 w/w, 20 w/w, and 25 w/w lipid to DNA based on the standard curve.
The table below summarizes the data as a % of the luciferase activity obtained from the use of Lipofectamine 2000. The table indicates the best lipids for transfection.

[1] = lipid/DNA 10 w/w, luciferase assay after 48 hours
[2] = lipid/DNA 15 w/w, luciferase assay after 48 hours
[3] = lipid/DNA 2.5 w/w, luciferase assay after 48 hours
[4] = lipid/DNA 5 w/w, luciferase assay after 48 hours
[5] = lipid/DNA 20 w/w, luciferase assay after 48 hours
[6] = lipid/DNA 25 w/w, luciferase assay after 48 hours
[7] = lipid/DNA 2.5 w/w, 72 hours incubation before bright-glo
[8] = lipid/DNA 5 w/w, 72 hours incubation before bright-glo
[9] = lipid/DNA 10 w/w, 72 hours incubation before bright-glo
[10] = lipid/DNA 15 w/w, 72 hours incubation before bright-glo
[11] = lipid/DNA 20 w/w, 72 hours incubation before bright-glo
[12] = lipid/DNA 25 w/w, 72 hours incubation before bright-glo

Row | SMILES | Luciferase expression as a percentage of that achieved using Lipofectamine 2000 [1] [%] | Luciferase expression as a percentage of that achieved using Lipofectamine 2000 [2] [%] | Luciferase expression as a percentage of that achieved using Lipofectamine 2000 [3] [%] | Luciferase expression as a percentage of that achieved using Lipofectamine 2000 [4] [%] | Luciferase expression as a percentage of that achieved using Lipofectamine 2000 [5] [%] | Luciferase expression as a percentage of that achieved using Lipofectamine 2000 [6] [%] | other results
1 | CCCCCCCCCCCCOC(=O)CCN(CCC(=O)OCCCCCCCCCCCC)CCN(CCO)CCO [LD86] | 29.6 | 16.0 |  |  |  |  | 
2 | CCCCCCCCCCCCCCCOC(=O)CC[N+](C)(CCC(=O)OCCCCCCCCCCCCCCC)CCC1OCCO1.[I-] [QG6] | 0.0 | 0.0 | 0.0 | 0.0 | 0.0 | 0.0 | 
3 | CCCCCCCCCCCCCCOC(=O)CCN(CCC(=O)OCCCCCCCCCCCCCC)CCN(CCC(=O)OCCCCCCCCCCCCCC)CCC(=O)OCCCCCCCCCCCCCC [LF99] | 26.5 | 10.7 | 32.2 | 49.8 | 6.0 | 6.2 | luciferase expression (second part of table, values relative to LIPO2000) (lipid/DNA 2.5 w/w, 300 ng of DNA per well): 32.2; luciferase expression (second part of table, values relative to LIPO2000) (lipid/DNA 5 w/w, 300 ng of DNA per well): 49.8; luciferase expression (second part of table, values relative to LIPO2000) (lipid/DNA 10 w/w, 300 ng of DNA per well): 26.5; luciferase expression (second part of table, values relative to LIPO2000) (lipid/DNA 15 w/w, 300 ng of DNA per well): 10.7; luciferase expression (second part of table, values relative to LIPO2000) (lipid/DNA 20 w/w, 300 ng of DNA per well): 6.0; luciferase expression (second part of table, values relative to LIPO2000) (lipid/DNA 25 w/w, 300 ng of DNA per well): 6.2
4 | CCCCCCCCCCCCCCCOC(=O)CCN(CCCn1ccnc1)CCC(=O)OCCCCCCCCCCCCCCC [LG93] | 19.8 | 37.3 | 3.6 | 9.2 | 24.0 | 24.6 | Luciferase expression as a percentage of that achieved using Lipofectamine 2000 [7]: 45.0%; luciferase expression (second part of table, values relative to LIPO2000) [7]: 45.0; Luciferase expression as a percentage of that achieved using Lipofectamine 2000 [8]: 43.8%; luciferase expression (second part of table, values relative to LIPO2000) [8]: 43.8; Luciferase expression as a percentage of that achieved using Lipofectamine 2000 [9]: 310.5%; luciferase expression (second part of table, values relative to LIPO2000) [9]: 310.5; Luciferase expression as a percentage of that achieved using Lipofectamine 2000 [10]: 281.8%; luciferase expression (second part of table, values relative to LIPO2000) [10]: 281.8; Luciferase expression as a percentage of that achieved using Lipofectamine 2000 [11]: 185.9%; luciferase expression (second part of table, values relative to LIPO2000) [11]: 185.9; Luciferase expression as a percentage of that achieved using Lipofectamine 2000 [12]: 183.8%; luciferase expression (second part of table, values relative to LIPO2000) [12]: 183.8
5 | CCCCCCCCCCCCCCCOC(=O)CCN(CCCN1CCOCC1)CCC(=O)OCCCCCCCCCCCCCCC [LG91] | 0.1 | 0.2 | 0.2 | 0.2 | 0.1 | 0.1 | 
6 | CCCCCCCCCCCCCCOC(=O)CCN(CCC(=O)OCCCCCCCCCCCCCC)C(CC)(CO)CO [LF34] | 1.1 | 0.5 | 0.1 | 0.3 | 0.2 | 0.3 | 
